These results are taken from patent US12280048B2, “Amorphous solid dispersions” (priority 2016, dated 2025).

≈ marks a conversion by molar mass, not a printed value.

The conditions of data set [1]: cited from earlier work.
A short description of data set [2]: mDSC glass transition of dispersions. The note with it: single glass transition above 75° C., Yes/No. It is filed as physicochemical.
The nature of data set [3]: chemical stability of ITI-007 by HPLC over the seven-day study. The following applies: 7 days at 40° C./75% RH, normalized to content before the study. Type of data set: physicochemical.
The target of the next data set is T1, 5-HT2C receptors (Homo sapiens, UniProt P28335).
T1 sequence (P28335 33-458): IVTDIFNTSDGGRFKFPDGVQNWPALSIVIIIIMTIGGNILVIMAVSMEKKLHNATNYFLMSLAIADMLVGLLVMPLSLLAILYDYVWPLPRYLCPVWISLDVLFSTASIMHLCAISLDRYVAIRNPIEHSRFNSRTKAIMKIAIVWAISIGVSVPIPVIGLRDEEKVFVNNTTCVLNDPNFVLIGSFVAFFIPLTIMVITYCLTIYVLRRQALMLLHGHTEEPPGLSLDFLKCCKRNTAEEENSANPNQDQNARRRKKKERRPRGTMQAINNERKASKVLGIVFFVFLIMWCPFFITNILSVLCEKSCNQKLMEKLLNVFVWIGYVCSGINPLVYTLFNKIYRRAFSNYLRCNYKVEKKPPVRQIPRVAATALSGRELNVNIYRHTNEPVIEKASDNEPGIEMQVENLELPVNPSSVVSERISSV
The note with it: cited from earlier work.

A further data set has as its system muscarinic receptors. The following applies: cited from earlier work.
Data set [4] addresses H1 histaminergic receptors (Homo sapiens, UniProt P35367). The note with it: cited from earlier work.
Data set [5] in a line: solubility of ITI-007 free base in solvents. It is filed as physicochemical.
Data set [6] in a line: preliminary screen of dispersions by XRPD and appearance. It is filed as physicochemical. The note with it: XRPD, as generated by lyophilization; ITI-007 free base/excipient.
Method: X-ray powder diffraction (XRPD): The X-ray powder diffraction studies are performed using a PANalytical X'Pert PRO MPD diffractometer using an incident beam of Cu radiation produced using an Optix long, fine-focus source. An elliptically graded multilayer mirror is used to focus Cu Kα X-ray radiation through the specimen and onto the detector. Prior to analysis, a silicon specimen is analyzed to verify the observed position of the Si (111) peak (consistent with the NIST-certified position, NIST SM 640e). A specimen of the sample is sandwiched between 3-micron thick films and analyzed in transmission geometry. A beam-stop, short antiscatter extension, and antiscatter knife edge is used to minimize the background generated by the air. Soller slits for the incident and diffracted beams are used to minimize broadening from axial divergence. Diffraction patterns are collected using a scanning position-sensitive detector (X'Celerator) located 240 mm from the specimen.
[7] abbreviates: salt of U.S. Pat. No. 7,183,282.

H1 histaminergic receptors, sequence (P35367 whole entry): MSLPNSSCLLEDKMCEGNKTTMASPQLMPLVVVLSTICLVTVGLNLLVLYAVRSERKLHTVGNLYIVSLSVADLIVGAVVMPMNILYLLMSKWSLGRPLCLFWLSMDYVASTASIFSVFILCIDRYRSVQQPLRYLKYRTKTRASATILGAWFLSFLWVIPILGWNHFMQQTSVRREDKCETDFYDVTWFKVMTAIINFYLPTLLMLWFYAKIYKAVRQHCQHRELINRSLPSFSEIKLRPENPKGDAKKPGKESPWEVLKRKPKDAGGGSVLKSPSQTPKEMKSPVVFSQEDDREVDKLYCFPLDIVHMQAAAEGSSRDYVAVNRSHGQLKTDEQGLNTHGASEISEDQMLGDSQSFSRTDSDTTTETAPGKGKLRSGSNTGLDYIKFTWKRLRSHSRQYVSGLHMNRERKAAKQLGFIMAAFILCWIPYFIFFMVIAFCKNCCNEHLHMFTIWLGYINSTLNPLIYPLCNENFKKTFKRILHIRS

With `CN1CCN2c3c(cccc31)C1CN(CCCC(=O)c3ccc(F)cc3)CCC12.Cl` (stereo not shown) [hydrochloride salt form of ITI-007], in data set [1] (setting [7]), the hygroscopicity result is recorded as “hygroscopic” and the stability entry is reported as “poor stability”.
A word on the solubility: it is how much of the substance goes into solution per volume. For `CN1CCN2c3c(cccc31)[C@@H]1CN(CCCC(=O)c3ccc(F)cc3)CC[C@@H]12` [ITI-007, 1-(4-fluoro-phenyl)-4-((6bR,10aS)-3-methyl-2,3,6b,9,10,10a-hexahydro-1H,7H-pyrido[3′,4′:4,5]pyrrolo[1,2,3-de]quinoxalin-8-yl)-butan-1-one], in data set [2], the “Tg > 75° C.” value is listed as “No”. Further, in data set [3], the “% ITI-007 change by HPLC” value was −5.97%. The binding result (on 5-HT2C receptors; with muscarinic receptors; in data set [4]) was “negligible binding” throughout. Besides, the solubility in data set [5] (2,2,2-trifluoroethanol (TFE), organic solvent or mixture) was greater than 50 mg/mL; in data set [5] (acetone, organic solvent or mixture) it was greater than 50 mg/mL; in data set [5] (dioxane, organic solvent or mixture), greater than 50 mg/mL; in data set [5] (ethanol, organic solvent or mixture), greater than 50 mg/mL; in data set [5] (methanol, organic solvent or mixture), greater than 50 mg/mL; in data set [5] (tert-butanol/water mixtures, aqueous with cosolvent or surfactant or cyclodextrin), 5 to 50 mg/mL (≈ 12.7 to 127 mM). In data set [5] (solutions in TFE), the stability in solution result is given as “rapidly discolor due to decomposition of the active”. Besides, in data set [6], the “X-ray Amorphous Solids?” value was “No”. For the same molecule, in data set [1] (free base form), the solubility in water entry was “poor solubility in water”.
